Measurements taken from ChEMBL document CHEMBL1817632, “Synthesis and cytotoxic activity of the heptaphylline and 7-methoxyheptaphylline series” (Eur J Med Chem, 2011).
Calls of active or inactive are those of the source. The calls are words filed in the database; no cut-off is given here.

What was measured:
Vero [1] = test: Cytotoxicity against african green monkey Vero cells expressing green fluorescent protein after 4 days by fluorescence analysis; format: cell-based; settings: chlorocebus sabaeus, 96 h
NCI-H187 [2] = test: Cytotoxicity against human NCI-H187 cells after 5 days by resazurin microplate assay; format: functional, cell-based; settings: NCI-H187, 120 h
KB [3] = test: Cytotoxicity against human KB cells after 3 days by resazurin microplate assay; format: functional, cell-based; settings: 72 h
Vero [4] = test: Cytotoxicity against african green monkey Vero cells expressing green fluorescent protein at > 200 uM after 4 days by fluorescence analysis; format: cell-based; settings: chlorocebus sabaeus, 96 h
KB [5] = test: Cytotoxicity against human KB cells at >200 uM after 3 days by resazurin microplate assay; format: functional, cell-based
NCI-H187 [6] = test: Cytotoxicity against human NCI-H187 cells at >200 uM after 5 days by resazurin microplate assay; format: functional, cell-based
KB [7] = test: Ratio of Ellipticine IC50 to compound IC50 for human KB cells; format: functional
NCI-H187 [8] = test: Ratio of Ellipticine IC50 to compound IC50 for human NCI-H187 cells; format: functional

Structure (SMILES) | IC50 (Vero [1]) | IC50 (NCI-H187 [2]) | IC50 (KB [3]) | Activity (Vero [4]) | Activity (KB [5]) | Activity (NCI-H187 [6]) | Ratio IC50 (KB [7]) | Ratio IC50 (NCI-H187 [8])
COc1ccc2c(c1)[nH]c1c(CC3OC3(C)C)c(O)c(C=O)cc12 (stereo not given) | 75.3 µM | 20.1 µM | 9.22 µM | – | – | – | – | –
COc1ccc2c(c1)[nH]c1c3c(c(C=O)cc12)OC(C)(C)C(O)C3 (stereo not given) | – | 3.04 µM | 120 µM | Non-toxic | – | – | – | –
CC1(C)OC1Cc1c(O)c(C=O)cc2c1[nH]c1ccccc12 (stereo not given) | 74.5 µM | 5.31 µM | 54.8 µM | – | – | – | – | –
CC1(C)Oc2c(C=O)cc3c([nH]c4ccccc43)c2CC1Br (stereo not given) | – | 77.4 µM | 6 µM | Non-toxic | – | – | – | –
COc1ccc2c(c1)[nH]c1c(CC=C(C)C)c(OC)c(C=O)cc12 | 61.1 µM | 19.5 µM | 11 µM | – | – | – | – | –
CC(C)=CCc1c(O)c(C=O)cc2c3ccccc3n(C)c12 | 34.6 µM | 44.2 µM | 166 µM | – | – | – | – | –
COc1c(C=O)cc2c3ccccc3n(C)c2c1CC=C(C)C | 149 µM | 62.5 µM | 147 µM | – | – | – | – | –
COc1ccc2c(c1)[nH]c1c3c(c(C=O)cc12)OC(C)(C)CC3 | – | – | – | Non-toxic | inactive | inactive | – | –
CC1(C)Oc2c(C=O)cc3c([nH]c4ccccc43)c2CC1O (stereo not given) | – | 6.06 µM | 5.99 µM | Non-toxic | – | – | – | –
COc1ccc2c(c1)[nH]c1c(CC=C(C)C)c(O)c(C=O)cc12 | – | – | – | Non-toxic | – | – | – | –
COc1ccc2c3cc(C=O)c(OC)c(CC=C(C)C)c3n(C)c2c1 | 45.9 µM | 4.83 µM | 69.8 µM | – | – | – | – | –
COc1cc2[nH]c3c4c(c(C=O)cc3c2cc1Br)OC(C)(C)C(Br)C4 (stereo not given) | – | – | – | Non-toxic | inactive | inactive | – | –
COc1ccc2c(c1)[nH]c1c3c(c(C=O)cc12)OC(C(C)(C)O)C3 (stereo not given) | – | 12.9 µM | 71.2 µM | Non-toxic | – | – | – | –
CC(C)=CCc1c(O)c(/C=N\O)cc2c1[nH]c1ccccc12 [HEPTAPHYLLINE OXIME] | 66 µM | 0.02 µM | 0.17 µM | – | – | – | 10 | 138
Cc1c2ccncc2c(C)c2c1[nH]c1ccccc12 [ELLIPTECINE] | 3.82 µM | 2.77 µM | – | – | – | – | – | –
CC(C)(O)C(Br)Cc1c(O)c(C=O)cc2c1[nH]c1ccccc12 (stereo not given) | – | 30.2 µM | 17.4 µM | Non-toxic | – | – | – | –
COc1cc2[nH]c3c(CC(Br)C(C)(C)O)c(O)c(C=O)cc3c2cc1Br (stereo not given) | 12.5 µM | 0.66 µM | 36.3 µM | – | – | – | – | 4
COc1ccc2c(c1)[nH]c1c(CC=C(C)C)c(O)c(/C=N\O)cc12 | – | 3.67 µM | 18.2 µM | Non-toxic | – | – | – | –
CC1(C)CCc2c(c(C=O)cc3c2[nH]c2ccccc23)O1 | – | 65.2 µM | 26.4 µM | Non-toxic | – | – | – | –
COc1c(C=O)cc2c([nH]c3ccccc32)c1CC=C(C)C | 170 µM | 4.49 µM | 12.8 µM | – | – | – | – | –
